This data set can be described thus: Solubility limit of the solid (second) organic solvent in the liquid (first) organic solvent. It counts as physicochemical. Particulars: dissolved at 40°C, stability on standing up to a week at 25°C. The source says:
The differences between the Hansen Solubility parameter Hd, Hp and Hh of the first and the second solvent can be realized individually or collectively. In a very preferred embodiment, at least two and more preferred all the differences between the Hansen Solubility parameter Hd, Hp and Hh of the first and the second solvent are commonly realized.

Setting [1] is: in liquid solvent 3-Phenoxy toluene.

In patent EP3390549B1, “FORMULATIONS CONTAINING A SOLID SOLVENT” (Merck Patent GmbH, priority 2015, dated 2017) one finds Solubility limit data, which are given here for 2 molecules.

Regarding `O=C1CCCCCCCCCCCCCCO1` [ω-Pentadecalactone], under setting [1], the Solubility limit is given as over 70%.

As to `C=C1CC[C@H]2O[C@]2(C)CC[C@@H]2[C@@H]1CC2(C)C` [Caryophyllene oxide], the Solubility limit was 55% under setting [1], 60% (in liquid solvent α-Pinene oxide) and 35% (in liquid solvent β-Caryophyllene).
